Measurements from patent US20060264423A1 (BIOENVISION, INC., priority 2005, published 2006).
Like-named read-outs stand apart in the source and are kept apart here.

Key:
[1] = in vivo; cited from earlier work
[2] = in vivo; cited from earlier work; remark: listed apart in the source
[3] = in vivo; cited from earlier work; remark: listed apart in the source
[4] = cited from earlier work
[5] = in vivo; cited from earlier work; remark: listed apart in the source
[6] = sheep; cited from earlier work
[7] = tested on: hepatitis C, genotype 4; assay: Open label clinical trial of oral methylene blue, reduction in hepatitis C viral load measured by PCR
[8] = sheep; doses as high as 50 mg/kg; cited from earlier work
[9] = tested on: chronic hepatitis B or C; details: patients with chronic hepatitis B or C; cited from earlier work
[10] = tested on: Herpes B; details: cited from earlier work
[11] = at 50 days, of the 23 responders

CC(=O)OCC(CCn1cnc2cnc(N)nc21)COC(C)=O [famciclovir]
oral bioavailability superior to that of oral acyclovir [1]: 3-5 times

CN(C)c1ccc2nc3ccc(N(C)C)cc3[s+]c2c1 [methylene blue, 3,7-Bis(dimethylamino)-phenothiazin-5-ium chloride]
absorption from the GI tract [2]: absorbed well
crossing of the blood-milk barrier [3]: crosses the blood-milk barrier easily
side effects ([4]; adult humans, one week to 19 months, 100 mg b.i.d. or t.i.d. orally or 100 mg intravenously): minimal side effects
side effects ([4]; recommended dose 50 to 300 mg by mouth, 1 to 4 mg/kg intravenously): blue urine, occasional nausea, anemia and fever
oral absorption (range) [5]: 55% to 97
overall elimination rate constant [6]: 0.0076 ± 0.0016 min⁻¹
decrease in viral count ([7]; 23 patients (of 25, genotype 4), at 50 days): 70-100%
non-responders ([7]; at 50 days, 25 patients, genotype 4): Two
responders with between 0.7-1 log reduction in viral load [7, 11]: 12 (52%) patients (%)
responders with between 1-2 log reduction in viral load [7, 11]: 6 (26%) patients (%)
responders with viral clearance [7, 11]: 5 (22%) patients (%)
drop in viral load ([7]; interim results, 8 of 9 patients, within the first 50 days): 62%-100
patients with between greater than or equal to 0.6 log to less than or equal to 1 log reduction in viral load ([7]; interim results, first 9 patients, 50 days of treatment): 89%
patients with a greater than or equal to two log reduction in viral load ([7]; interim results, first 9 patients, 50 days of treatment, 65 mg twice daily oral): 33%
efficacy in treating hepatitis C (conclusion) ([7]; overall conclusion of the trial results): highly efficacious
methemoglobin production [8]: minimal methemoglobin production

Interferon alpha
patients in whom treatment is effective [9]: 25-30%

Nc1nc2c(ncn2COCCO)c(=O)[nH]1 [Acyclovir]
sensitivity of the virus in vitro [10]: sensitive

Nc1nc(O)c2ncn(COC(CO)CO)c2n1 [Ganciclovir]
sensitivity of the virus in vitro [10]: sensitive

CC(C)[C@H](N)C(=O)OCCOCn1cnc2c(=O)[nH]c(N)nc21 [Valaciclovir]
oral bioavailability superior to that of oral acyclovir [1]: 3-5 times
